What was measured:
HeLa cell membranes = assay: Function as NO probe on cell membrane (NOC13 addition); assay type: cell-based; conditions: 7.5 μmol/L probe, PBS(+) pH 7.4, NOC13 100 μmol/L at 120 seconds and 1 mmol/L at 1,800 seconds, HeLa cells (FIG. 6)
Procedure: To 1 mL of an extracellular fluid (pH 7.4, PBS (+)) loaded with DAF-PIP-DPPE (7.5 μmol/L) was added NOC13 solution (500 μL) prepared before use.

HeLa cells = assay: Fluorescence intensity change of loaded cells on extracellular pH change; assay type: cell-based; conditions: extracellular fluid pH from 7.4 to 6.7 to 6.4, loaded cells, fluorescence microscope (FIG. 5)
Procedure: As a control experiment, a fluorescein ester derivative (fluorescein diacetate), which can penetrate cell membranes and undergo hydrolysis by cytoplasmic esterase to distribute fluorescein intracellularly, was loaded on the cells, then the cells were treated in the same manner.

[1] = Fluorescence time course of reaction with NO released from NOC13; conditions: 1.27 μmol/L in PBS(−), 37° C., NOC13 5, 50, 100, 500 μmol/L (FIG. 2)
Procedure: To a 1.27 μmol/L DAF-PIPA PBS(−) solution at 37° C. was added NOC13 as a sustained release-type NO releasing agent at concentrations of 5 μmol/L, 50 μmol/L, 100 μmol/L, and 500 μmol/L, respectively, and change in the reaction with NO over time was measured.

In the case of `CCCCCCCCCCCCCCCC(=O)OC[C@H](COP(=O)(O)OCCNC(=O)C1CCN(C(=O)c2cc(N)c(N)cc2-c2c3ccc(=O)cc-3oc3cc(O)ccc23)CC1)OC(=O)CCCCCCCCCCCCCCC` [DAF-PIP-DPPE], the “fluorescence intensity change on cell membranes after NOC13” value (HeLa cell membranes) is reported as “Marked increase in the fluorescence intensity”.
In the case of `CC(=O)Oc1ccc2c(c1)Oc1cc(OC(C)=O)ccc1C21OC(=O)c2ccccc21` [fluorescein diacetate], the “decrease in fluorescence intensity according to pH change of extracellular fluid” value (HeLa cells) is reported as “no change in fluorescence intensity”.
In the case of DAF-piperidinic Acid [DAF-PIPA], the “change in fluorescence intensity on reaction with NO” value [1] is reported as “became larger in a NO concentration-dependent manner”.
